Assay results taken from patent US20260364213A1, “RADIOLABELED COMPOUNDS OF TRIMETHOPRIM AND USES THEREOF” (THE TRUSTEES OF THE UNIVERSITY OF PENNSYLVANIA, priority 2023, published 2026).
“Also recorded” adds a separate entry of the source.

What was measured:
I45 cells = test: Cytotoxicity in I45 cells with subcellular eDHFR-YFP; format: cell-based, human; conditions: for RBE: ref. cytoplasmic
Description: (§1) Wild-type and eDHFR-YFP-expressing I45 and SKOV3 cells were seeded on 96-well plates (Corning #3603) at the density of 1,000 cells/well and 3,000 cells/well, respectively, in complete growth media 24 hours before the assay. The following five treatment conditions were applied in complete growth media: 200 μCi/mL ~15 μCi/mL [^211At]At-TMP, 120 μCi/mL-15 μCi/mL free ^211At, 120 μCi/mL-15 μCi/mL [^211At]At-TMP+10 μM TMP, 10 nM-1 μM doxorubicin, and 40 μM−1 mM TMP. After 72 hours of incubation, the surviving fraction of the cells was quantified using CellTiter-Glo (Promega #G9243). See, Makvandi, Molecular cancer therapeutics. 2019; 18(7):1195-204. The assay was performed three times in triplicates. The effective concentration for 50% cell death (EC50) was determined for each treatment condition by fitting the surviving fractions into a non-linear sigmoidal dose-response curve. For eDHFR-YFP-positive cells, the [^211At]At-TMP treatment concentrations were converted to the number of ^211At decays/cell, using the median number of receptors/cell (obtained from YFP fluorescence) and Kd of [^211At]At-TMP. See, Lee, Journal of nuclear medicine. 2020; 61(6):850-6.
(§2) For comparison to the nuclear S-values, the observed cytotoxicity per ^211At decay was also expressed relative to cytoplasmic eDHFR-YFP. […] Finally, the ratio between the isolated cytotoxicity and nuclear S-value was calculated as the RBE for eDHFR-YFP in each subcellular compartment.
(§3) Supplemental Method 2. Calculation of the relative cytotoxicity of ^211At decay in different subcellular compartments. • By the linear-quadratic model for targeted alpha therapy,
(§4) (Survival)=e^−αD-βD^2≈e^−αD • Let N=number of ^211At decays/cell at EC50. Then, the following is obtained:
(§5) ln(0.5)=−αD=−TN • where T is the product of S-value and α, representing cytotoxicity per decay. Let F=fraction of eDHFR in each subcellular compartment. Then, the following can be written:
(§6) [formula] • where capital letters denote the microscopically observed subcellular location of eDHFR and lowercase letters denote the genetically targeted location of eDHFR.
(§7) The measured values of F (FIG. 19) and N (FIG. 28C) were then used to solve for T. DNA-targeted eDHFR observed in the nucleus is assumed to be 100% DNA-bound, and for SKOV3, Nc≈Nm is applied based on the lack of significant difference in EC50.
(§8) Finally, the T values are normalized with Tc to obtain the relative cytotoxicity of ^211At decay in each subcellular compartment compared to the cytoplasm.

I45 and SKOV3 cells = test: Cytotoxicity in wild-type and eDHFR-YFP-expressing I45 and SKOV3 cells; format: cell-based, human
Description: After 72 hours of incubation, the surviving fraction of the cells was quantified using CellTiter-Glo (Promega #G9243). See, Makvandi, Molecular cancer therapeutics. […] The assay was performed three times in triplicates. […] See, Lee, Journal of nuclear medicine.

SKOV3 cells = test: Cytotoxicity in SKOV3 cells with subcellular eDHFR-YFP; format: cell-based, human; conditions: for RBE: ref. cytoplasmic
Description: as §1, §2, §3, §4, §5, §6, §7, §8

eDHFR-YFP = biological target: T1, eDHFR-YFP (Escherichia coli, UniProt P0ABQ4); test: Radioligand binding to eDHFR-YFP expressing cells; set-up: species or system E. coli
T1 sequence (P0ABQ4 1-159): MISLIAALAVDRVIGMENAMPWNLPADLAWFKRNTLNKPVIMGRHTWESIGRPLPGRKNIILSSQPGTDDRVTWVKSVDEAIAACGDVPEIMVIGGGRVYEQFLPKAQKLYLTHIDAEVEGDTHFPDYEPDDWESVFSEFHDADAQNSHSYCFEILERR
Description: Due to the high specific activity of [^211At]At-TMP that limits its working concentration to pM range, [^125I]I-TMP was used for saturation binding studies to determine Bmax.
eDHFR-YFP-positive I45 and SKOV3 cells were plated on 96-well plates (Corning #9102) at the density of 25,000 cells/well and 40,000 cells/well, respectively, in complete growth media 24 hours before the assay. […] After incubation at 37 °C for 90 minutes, the wells were aspirated and washed twice with ice-cold PBS. The radioactivity in each well was measured with a Perkin Elmer Wizard gamma counter. The assay was performed three times in triplicates. […] See, Swillens, Molecular pharmacology. 1995; 47(6):1197-203. The corresponding EC50 values were plotted against the receptor concentration/2 to determine the Kd. See, Hulme, British journal of pharmacology. 2010; 161(6):1219-37. The Bmax values were correlated with the total YFP florescence from the wells, with a correction factor of 2.5 and 2.2 for membrane-bound eDHFR-YFP in I45 and SKOV3, respectively, in order to account for decreased fluorescence per molecule from addition of the membrane localization signal to YFP. See, Wu, Science. 2005; 310(5746):310-4; and Bakholdina, Molecules. 2021; 26(13).
For determination of the Kd of [^211At]At-TMP, the binding assay protocol was repeated in I45 and SKOV3 cells expressing cytoplasmic eDHFR-YFP, using 150 μL of 0.06-60 nM [^125I]I-TMP±10 μM TMP for half of each 96-well plate and 50-260 μL of […] [^211At]At-TMP±10 μM TMP for the remaining half. The Bmax of each plate determined from [^125I]I-TMP binding was divided by the assay volumes used for [^211At]At-TMP to calculate the total receptor concentration ([RT]) in each [^211At]At-TMP well. The ligand depletion (δ) in each [^211At]At-TMP well was obtained by dividing the bound radioactivity by total added radioactivity. The assay was performed four times in triplicates. As derived in Supplemental Methods 1, δ^−1 was plotted against [RT]^−1 to determine the Kd as the slope of the linear best-fit line.
Supplemental Method 1. Measurement of the dissociation constant (Kd) of [^211At]At-TMP binding to eDHFR under non-saturating, ligand-depleting conditions. When [Ligand]<<Kd, ligand depletion (6) at equilibrium is
where [R] is the free receptor concentration and [RT]is the total receptor concentration. Since 6 is non-zero, taking the reciprocal of both sides of the equation yields
[formula] • If a δ^−1 vs. [RT]^−1 graph where y=δ^−1 and x=[RT]^−1 is plot,
Therefore, the slope of the linear best-fit line represents the Kd and the y-intercept is 1.

[1] = In vitro stability in RPMI 1640 medium; format: physicochemical; conditions: 37 °C, up to 6 hours, radio-HPLC
Description: The specific activity of [^211At]At-TMP and [^125I]I-TMP was determined by comparison of radioactivity to the area under 288-nm ultraviolet light peak on radio-HPLC. The in vitro stability of [^211At]At-TMP was examined with incubation in Roswell Park Memorial Institute (RPMI) 1640 medium at 37 °C for up to 6 hours, followed by radio-HPLC analysis.

hamster fibroblasts = conditions: predominantly nuclear lead-212 vs predominantly cytoplasmic polonium-210; cited from earlier work

## COc1cc(Cc2cnc(N)nc2N)cc([At])c1OC [[^211At]At-TMP]
I45 cells; I45, DNA-bound
  relative cytotoxicity with reference to cytoplasmic eDHFR: 10
  RBE: 3.1
I45 cells; I45, P=0.005
  cytotoxicity, membrane-bound compared to cytoplasmic eDHFR: higher cytotoxicity compared to cytoplasmic eDHFR
I45 cells; I45, membrane-bound
  relative cytotoxicity with reference to cytoplasmic eDHFR: 2.8
  RBE: 3.5
I45 cells; I45, nuclear
  relative cytotoxicity with reference to cytoplasmic eDHFR: 7.4
  RBE: 2.3
I45 and SKOV3 cells; 72 h
  cytotoxicity in eDHFR-expressing compared to wild-type cells: significantly higher cytotoxicity
I45 and SKOV3 cells; DNA-bound P=0.017 I45, P=0.012 SKOV3, nuclear P=0.0006 I45, P=0.004 SKOV3
  cytotoxicity per bound decays/cell, DNA-bound and nuclear eDHFR: the highest cytotoxicity was observed with DNA-bound eDHFR (P=0.017 in I45 and P=0.012 in SKOV3), followed by nuclear eDHFR
I45 and SKOV3 cells; up to 34 μM (so in the source)
  pharmacologic cytotoxicity: absence of pharmacologic cytotoxicity
I45 and SKOV3 cells; with 10 μM cold TMP
  difference in cytotoxicity wild-type vs eDHFR-expressing, blocked: disappearance; also recorded: comparable across the wild-type and eDHFR-YFP-expressing cells
SKOV3 cells; SKOV3, DNA-bound
  relative cytotoxicity with reference to cytoplasmic eDHFR: 13
  RBE: 3.2
SKOV3 cells; SKOV3, membrane-bound
  relative cytotoxicity with reference to cytoplasmic eDHFR: 1.0
  RBE: 1.4
SKOV3 cells; SKOV3, nuclear
  relative cytotoxicity with reference to cytoplasmic eDHFR: 8.5
  RBE: 2.0
eDHFR-YFP; I45 and SKOV3 cells
  binding affinity compared to [^125I]I-TMP: lower binding affinity
  Kd: 2.5 to 4.8 nM
eDHFR-YFP; I45 cells
  Kd: 4.8 ± 0.1 nM
eDHFR-YFP; SKOV3 cells
  Kd: 2.5 ± 0.2 nM
[1]
  in vitro stability in aqueous media: stable at 37 °C in aqueous media

## lead-212
Hamster fibroblasts
  RBE relative to gamma irradiation: 4
